From article PMC11855827, “High-Throughput Screening of Five Compound Libraries for Anthelmintic Activity and Toxicity Leads to the Discovery of Two Flavonoid Compounds” (International Journal of Molecular Sciences, 2025)
“And” between values parts separate entries of the source, which are not always exact repeats. Equal entries are not always repeated.

Tested on: C. elegans
Conditions: Table S2, C. elegans SS assay, 110 μM, averages of 4 data points

Molecule	Percentage of motility inhibition 0 h	Percentage of motility inhibition 24 h
CCC[C@@H]1C[C@@H](C(=O)N[C@@H]([C@H]2O[C@H](SC)[C@H](O)[C@@H](O)[C@H]2O)[C@@H](C)O)N(C)C1.Cl.O [Lincomycin (hydrochloride hydrate)]	1%	0%
O=C(/C=C/c1ccc(O)cc1)OC[C@H]1O[C@@H](Oc2c(-c3ccc(O)cc3)oc3cc(O)cc(O)c3c2=O)[C@H](O)[C@@H](O)[C@@H]1O [Tribuloside]	13%	16%
C=C1C[C@@]23CC[C@H]4[C@@](C)(CCC[C@@]4(C)C(=O)O)[C@@H]2CC[C@]1(O[C@@H]1O[C@H](CO)[C@@H](O)[C@H](O)[C@H]1O[C@@H]1O[C@H](CO)[C@@H](O)[C@H](O)[C@H]1O)C3 [Steviolbioside]	10%	5%
CC1=C[C@@H]2C(=O)[C@]3(C=C(C)[C@H](O)[C@@]3(O)[C@@H]1O)[C@H](C)C[C@@H]1[C@H]2C1(C)C [20-Deoxyingenol]	0%	21%
Nc1ncnc2c1ncn2[C@H]1C[C@H](O)[C@@H](COP(=O)([O-])OP(=O)([O-])OP(=O)([O-])O)O1.[Na+].[Na+].[Na+]	21%	0%
C=C(C)[C@@H]1CCC2=CCC[C@@H](C)[C@]2(C)C1 [Valencene]	3%	4%
Rebaudioside C	0%	6%
C=C[C@H]1CN2CC[C@H]1C[C@H]2[C@H](O)c1ccnc2ccc(OC)cc12.Cl.O.O [Quinine (hydrochloride dihydrate)]		8%
CC1(C)[C@@H](O)CC[C@]2(C)[C@H]3C(=O)C=C4[C@@H]5C[C@@](C)(C(=O)O)CC[C@]5(C)CC[C@@]4(C)[C@]3(C)CC[C@@H]12 [18β-Glycyrrhetinic acid]	15% and 6%	
C[C@@H]1O[C@@H]1P(=O)([O-])[O-].[Ca+2] [Fosfomycin (calcium)]	4%	0%
COc1ccc(OCc2ccc(COc3c(Cl)cccc3Cl)cc2)c(Cl)c1 [Pocapavir]	29%	18%
CC[C@H]1OC(=O)[C@H](C)[C@@H](O[C@H]2C[C@@](C)(OC)[C@@H](O)[C@H](C)O2)[C@H](C)[C@@H](O[C@@H]2O[C@H](C)C[C@H](N(C)C)[C@H]2O)[C@](C)(O)C[C@@H](C)CN[C@H](C)[C@@H](O)[C@]1(C)O [Azathramycin]	11%	10%
CCC(C)(C)c1ccc(CC(C)CN2C[C@@H](C)O[C@@H](C)C2)cc1.Cl (some centres unmarked) [Amorolfine (hydrochloride)]	20%	9%
COc1ccc(-c2cc(=O)c3c(O)cc(O)c(-c4cc(-c5cc(=O)c6c(O)cc(OC)cc6o5)ccc4OC)c3o2)cc1 [Sciadopitysin]	0%	21%
CN1[C@H]2C[C@H](OC(=O)[C@H](CO)c3ccccc3)C[C@@H]1[C@@H](O)C2 (racemic) [Racanisodamine]		0% and 6%
COC(=O)C1=CO[C@@H](O[C@@H]2O[C@H](CO)[C@@H](O)[C@H](O)[C@H]2O)[C@@H]2C(CO)=C[C@H](O)[C@H]12 [Methyl deacetylasperulosidate]	16%	30%
O=C1C[C@@H](c2ccc(O)cc2)Oc2cc(O[C@@H]3O[C@H](CO)[C@@H](O)[C@H](O)[C@H]3O)ccc21 [Neoliquiritin]	0%	20%

Molecule	Percentage of motility inhibition 0 h	Percentage of motility inhibition 24 h
Cc1cc(CC(C)CC(C)(C)C)n(O)c(=O)c1.NCCO (centres unmarked) [Piroctone olamine]	5%	7%
Ginkgolide C	12%	0%
CC1(C)S[C@@H]2[C@H](NC(=O)[C@H](N)c3ccc(O)cc3)C(=O)N2[C@H]1C(=O)[O-].[Na+] [Amoxicillin (sodium)]	29%	10%
C[C@H]1O[C@@H](O[C@H]2CC[C@@]3(C)[C@@H](CC[C@]4(C)[C@@H]3C=C[C@]35OC[C@@]6(CCC(C)(C)C[C@H]63)[C@H](O)C[C@]54C)[C@]2(C)CO)[C@H](O)[C@@H](O[C@@H]2O[C@H](CO)[C@@H](O)[C@H](O)[C@H]2O)[C@H]1O [Saikosaponin D]	34%	52%
COc1ccc2c(c[n+](C)c3c4cc5c(cc4ccc23)OCO5)c1OC.[Cl-] [Chelerythrine (chloride)]	17%	22%
Pseudoginsenoside F11	0%	22%
CC(=O)OC/C1=C/C[C@H]2[C@@H](/C=C(\C)C(=O)[C@@]3(OC(C)=O)C[C@H](C)[C@H](OC(=O)c4ccccc4)[C@@H]3[C@H]1OC(C)=O)C2(C)C [Euphorbia factor L7b]	14%	37%
C=C1C(=O)O[C@H]2[C@H]1CC[C@]1(C)O[C@@]13CC[C@@](C)(O)[C@H]23 [Epoxymicheliolide]	16%	24%
CNCC(O)c1ccc(O)cc1.Cl (centres unmarked) [Synephrine (hydrochloride)]	0%	4%
CN(C)[C@@H]1C(=O)C(C(N)=O)=C(O)[C@@]2(O)C(=O)C3=C(O)c4c(O)cccc4[C@@](C)(O)[C@H]3C[C@@H]12.Cl [Tetracycline (hydrochloride)]	26%	11%
CC(=O)[C@H]1CC[C@H]2[C@@H]3CC[C@H]4CC(=O)CC[C@]4(C)[C@H]3CC[C@]12C [5a‐Pregnane‐3,20‐dione]	2%	17%
COc1cc2c(cc1OC)[C@@H](Cc1ccc(O)c(Oc3cc4c(cc3OC)CCN(C)[C@@H]4Cc3ccc(O)cc3)c1)N(C)CC2 [Liensinine]	34%	8%
CC12CCC(CC1=O)C2(C)C (stereo not drawn) [(+)‐Camphor]	31%	1%
Aprotinin	4%	9%
C=C1CC[C@@H]2[C@](C)(CO)[C@H](O)CC[C@@]2(C)[C@@H]1/C=C/C1=CCOC1=O [Dehydroandrographolide]	0% and 4%	7% and 9%
COC(=O)C1=CC[C@@]23CC[C@@H]([C@@](C)(/C=C/C=C(\C)C(=O)O[C@@H]4O[C@H](CO)[C@@H](O)[C@H](O)[C@H]4O)OC2=O)[C@@]3(OC(C)=O)CC1 [Pseudolaric acid B β-D-glucoside]	4%	0%
CC(=O)[N-]S(=O)(=O)c1ccc(N)cc1.[Na+] [Sulfacetamide (Sodium)]	33%	6%
